Patent publication US20200062773A1, “4,4a,5,7-TETRAHYDRO-3H-FURO[3,4-b]PYRIDINYL COMPOUNDS” (Janssen Pharmaceutlca NV, priority 2016, published 2020)

Columns and labels:
[1] = Phase 2 trial, development terminated June 2013; cited from earlier work
[2] = target: T1, BACE2 (Homo sapiens, UniProt Q9Y5Z0); experiment: BACE2 biochemical FRET based assay; settings: recombinant BACE2, 450 minutes at room temperature, pH 5.0; read-out: Biochemical FRET based assay pIC50 (converted)
T1 construct: recombinant BACE2 protein in a final concentration of 0.4 μg/ml
T1 sequence (Q9Y5Z0 63-518): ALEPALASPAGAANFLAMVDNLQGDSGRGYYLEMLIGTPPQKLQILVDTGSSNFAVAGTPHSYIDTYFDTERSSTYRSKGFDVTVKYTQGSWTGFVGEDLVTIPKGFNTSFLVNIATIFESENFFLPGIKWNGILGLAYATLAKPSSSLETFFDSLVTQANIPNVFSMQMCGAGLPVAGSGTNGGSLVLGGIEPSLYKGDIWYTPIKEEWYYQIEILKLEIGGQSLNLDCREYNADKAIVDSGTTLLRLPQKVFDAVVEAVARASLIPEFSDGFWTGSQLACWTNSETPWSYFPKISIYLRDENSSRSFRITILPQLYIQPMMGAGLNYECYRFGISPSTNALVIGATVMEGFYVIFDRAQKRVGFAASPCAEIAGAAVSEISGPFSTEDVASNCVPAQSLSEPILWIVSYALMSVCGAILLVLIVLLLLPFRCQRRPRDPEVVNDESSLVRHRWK
Procedure, shortened: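 Recombinant BACE2 (0.4 μg/ml) incubated 450 min at room temperature with 10 μM Mca/Dnp Swedish-APP FRET substrate in 50 mM citrate pH 5.0, 0.05% PEG, no DMSO. Fluorescence (ex 320/em 405 nm) difference T450 minus T0; IC50 from least-squares fit of % control versus concentration.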

[3] = system: Abeta 1-42 produced and secreted into the medium of human neuroblastoma SKNBE2 cells; experiment: Cellular αLisa assay in SKNBE2 cells; format: cell-based; settings: Homo sapiens, SKNBE2, 18 h, human neuroblastoma SKNBE2 cells expressing hAPP695, 18 hours incubation, read-out: Cellular αLisa assay in SKNBE2 cells Abeta 42 pIC50 (converted)
Procedure, shortened: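 Human neuroblastoma SKNBE2 cells expressing wild-type hAPP695 were exposed to compound for 18 hours. Secreted Abeta 1-42 in medium was quantified by sandwich αLisa (AbN/25 and cAb42/26 beads; 1 h, excitation 650 nm, emission 615 nm). IC50 came from a least-squares curve fit of % Controlmin against concentration.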

[4] = system: Abeta 1-42 in cerebrospinal fluid (CSF); experiment: Pharmacology in the beagle dog: beta-amyloid profile in CSF after a single dose; format: in vivo; settings: beagle dog CSF, single dose 0.63 mg/kg
Protocol: Pharmacology in the Beagle Dog
(§1) Test compounds were tested to evaluate the effect on the beta-amyloid profile in cerebrospinal fluid (CSF) of dogs after a single dose, in combination with pharmacokinetic (PK) follow up and limited safety evaluation. For each of compound 4b, 3c, 7d, or 14, four beagle dogs (2 males, 2 females) were dosed with vehicle (1 ml/kg of an aqueous solution of 20% cyclodextrin) and 12, 8, 4 and 4 beagle dogs (2 males and 2 females per dosage group), were dosed with test compounds as follows:
(§2) CSF was taken in conscious animals directly from the lateral ventricle via a cannula which was screwed in the skull and covered with subcutaneous tissue and skin, before and at 4, 8, 25 and 49 hours after dosing. Eight hours after dosing the animals got access to their regular meal for 30 minutes. Blood was taken for PK follow up (0.5, 1, 2, 4, 8, 25 and 49 hours) and serum samples for biochemistry were taken before and at 8 and 25 h after dosing. The CSF samples were used for measurement of Abeta 1-42.

[5] = Limited safety evaluation in the beagle dog (observations, serum biochemistry); format: in vivo; settings: one dog, 0.63 mg/kg single dose, 2 h post dosing
Protocol: as §1
as §2, with “Blood was taken for PK follow up (0.5, 1, 2, 4, 8, 25 and 49 hours) and serum samples for biochemistry were taken before and at 8 and 25 h after dosing.” left out

[6] = target: T2, BACE1 (Homo sapiens, UniProt P56817); experiment: BACE1 biochemical FRET based assay; settings: Method 1: recombinant BACE1 1 μg/ml, 120 min at room temperature, pH 5.0; read-out: Biochemical FRET based assay pIC50 (converted)
T2 construct: recombinant BACE1 protein in a final concentration of 1 μg/ml
T2 sequence (P56817 46-501): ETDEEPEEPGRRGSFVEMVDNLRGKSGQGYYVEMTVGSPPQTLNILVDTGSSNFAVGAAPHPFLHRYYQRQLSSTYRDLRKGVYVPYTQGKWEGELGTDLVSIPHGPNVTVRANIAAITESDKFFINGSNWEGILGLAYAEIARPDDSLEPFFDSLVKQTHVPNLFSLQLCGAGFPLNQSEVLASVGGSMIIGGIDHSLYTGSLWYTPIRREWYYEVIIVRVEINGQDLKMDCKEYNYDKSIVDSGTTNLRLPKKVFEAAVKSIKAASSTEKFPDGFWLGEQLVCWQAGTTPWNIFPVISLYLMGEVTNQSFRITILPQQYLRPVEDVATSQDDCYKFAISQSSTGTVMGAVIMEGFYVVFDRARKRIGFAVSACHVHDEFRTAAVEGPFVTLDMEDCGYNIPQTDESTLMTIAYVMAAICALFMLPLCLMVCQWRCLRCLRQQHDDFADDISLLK
Procedure, shortened: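 Recombinant BACE1 (1 μg/ml) incubated 120 min at room temperature with 10 μm Mca/Dnp-quenched 13-mer APP Swedish-mutant peptide in 40 mM citrate pH 5.0, 0.04% PEG, 4% DMSO. Fluorescence (ex 320/em 405 nm) change between T0 and T120 gives activity; IC50 from least-squares curve fit of % control versus concentration.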

SMILES	liver abnormalities (patients affected) [1]	IC50 [2]	IC50 [3]	% Mean decrease in Abeta 1-42 at 8 h post dosing compared to own baseline ([4]; 8 h)	% Mean decrease in Abeta 1-42 at 25 h post dosing compared to own baseline ([4]; 25 h)	% Mean decrease in Abeta 1-42 at 49 h post dosing compared to own baseline ([4]; 49 h)	Observations [5]	IC50 [6]
NC1=N[C@@]2(c3cc(NC(=O)c4ccc(F)cn4)ccc3F)COC[C@H]2CS1 [LY2886721]	four out of 45	–	–	–	–	–	–	–
CC(F)(F)[C@H]1OC[C@]2(c3cc(NC(=O)c4cnc(OCF)cn4)ccc3F)N=C(N)[C@](C)(C#N)C[C@H]12 [compound 14]	–	81.3 nM	6.92 nM	32%	NR (NR means % decrease < 20)	NR (NR means % decrease < 20)	emesis	2.24 nM
